Source: the NIST ThermoML archive (doi:10.1016/j.jct.2019.02.011)
Numbers after ± are expanded uncertainties.

Experiment: xn = mol fraction of the nth substance listed
Settings: Liquid, Vibrating tube method

COC(=O)OC [dimethyl carbonate] + CCO
mass density [kg/m3]
Settings	100 kPa	5000 kPa	10000 kPa	15000 kPa	20000 kPa	25000 kPa	30000 kPa	35000 kPa	40000 kPa
288.15 K, x1 = 0.0252	804.2 ± 1.4	808 ± 1.4	812.06 ± 1.4	815.89 ± 1.4	819.61 ± 1.4	822.92 ± 1.4	826.21 ± 1.4	829.16 ± 1.4	832.33 ± 1.4
288.15 K, x1 = 0.0506	813.67 ± 1.4	817.57 ± 1.4	821.64 ± 1.4	825.53 ± 1.4	829.25 ± 1.4	832.61 ± 1.4	835.95 ± 1.4	838.9 ± 1.4	842.19 ± 1.4
288.15 K, x1 = 0.0757	823.01 ± 1.4	826.96 ± 1.4	831.04 ± 1.4	834.98 ± 1.4	838.69 ± 1.4	842.06 ± 1.4	845.41 ± 1.4	848.42 ± 1.4	851.7 ± 1.4
288.15 K, x1 = 0.1003	831.96 ± 1.4	835.91 ± 1.4	839.99 ± 1.4	843.94 ± 1.4	847.7 ± 1.4	851.08 ± 1.4	854.48 ± 1.4	857.54 ± 1.4	860.78 ± 1.4
288.15 K, x1 = 0.1508	849.93 ± 1.4	853.94 ± 1.4	858.08 ± 1.4	862.04 ± 1.4	865.84 ± 1.4	869.28 ± 1.4	872.69 ± 1.4	875.76 ± 1.4	879.06 ± 1.4
288.15 K, x1 = 0.2	866.84 ± 1.4	870.91 ± 1.4	875.1 ± 1.4	879.08 ± 1.4	882.88 ± 1.4	886.33 ± 1.4	889.8 ± 1.4	892.93 ± 1.4	896.24 ± 1.4
288.15 K, x1 = 0.2547	885.11 ± 1.4	889.19 ± 1.4	893.38 ± 1.4	897.43 ± 1.4	901.27 ± 1.4	904.73 ± 1.4	908.21 ± 1.4	911.35 ± 1.4	914.67 ± 1.4
288.15 K, x1 = 0.3002	899.9 ± 1.4	903.99 ± 1.4	908.19 ± 1.4	912.25 ± 1.4	916.09 ± 1.4	919.56 ± 1.4	923.05 ± 1.4	926.24 ± 1.4	929.57 ± 1.5
288.15 K, x1 = 0.3498	915.51 ± 1.4	919.65 ± 1.4	923.86 ± 1.4	927.88 ± 1.4	931.71 ± 1.4	935.24 ± 1.5	938.74 ± 1.5	941.95 ± 1.5	945.28 ± 1.5
288.15 K, x1 = 0.4	930.78 ± 1.4	934.94 ± 1.4	939.15 ± 1.4	943.23 ± 1.5	947.06 ± 1.5	950.6 ± 1.5	954.16 ± 1.5	957.37 ± 1.5	960.71 ± 1.5
288.15 K, x1 = 0.449	945.14 ± 1.5	949.35 ± 1.5	953.57 ± 1.5	957.66 ± 1.5	961.48 ± 1.5	965.03 ± 1.5	968.6 ± 1.5	971.87 ± 1.5	975.22 ± 1.5
288.15 K, x1 = 0.4996	959.51 ± 1.5	963.73 ± 1.5	967.96 ± 1.5	972.06 ± 1.5	975.93 ± 1.5	979.49 ± 1.5	983.06 ± 1.5	986.34 ± 1.5	989.7 ± 1.5
288.15 K, x1 = 0.5507	973.56 ± 1.5	977.78 ± 1.5	982.01 ± 1.5	986.13 ± 1.5	989.99 ± 1.5	993.56 ± 1.5	997.14 ± 1.5	1000.43 ± 1.5	1003.8 ± 1.5
288.15 K, x1 = 0.6005	986.73 ± 1.5	990.95 ± 1.5	995.19 ± 1.5	999.32 ± 1.5	1003.17 ± 1.5	1006.8 ± 1.5	1010.39 ± 1.5	1013.69 ± 1.5	1017.06 ± 1.5
288.15 K, x1 = 0.6455	998.17 ± 1.5	1002.45 ± 1.5	1006.64 ± 1.5	1010.83 ± 1.5	1014.68 ± 1.5	1018.32 ± 1.5	1021.92 ± 1.5	1025.22 ± 1.5	1028.6 ± 1.5
288.15 K, x1 = 0.6931	1009.92 ± 1.5	1014.21 ± 1.5	1018.41 ± 1.5	1022.55 ± 1.5	1026.4 ± 1.5	1030.05 ± 1.5	1033.65 ± 1.5	1037.01 ± 1.5	1040.4 ± 1.5
288.15 K, x1 = 0.7502	1023.43 ± 1.5	1027.72 ± 1.5	1031.92 ± 1.5	1036.08 ± 1.5	1039.92 ± 1.5	1043.58 ± 1.5	1047.24 ± 1.5	1050.61 ± 1.5	1054 ± 1.6
288.15 K, x1 = 0.8009	1035 ± 1.5	1039.3 ± 1.5	1043.51 ± 1.5	1047.68 ± 1.5	1051.52 ± 1.5	1055.18 ± 1.6	1058.85 ± 1.6	1062.22 ± 1.6	1065.62 ± 1.6
288.15 K, x1 = 0.8505	1046 ± 1.5	1050.3 ± 1.5	1054.51 ± 1.5	1058.68 ± 1.6	1062.52 ± 1.6	1066.19 ± 1.6	1069.82 ± 1.6	1073.25 ± 1.6	1076.6 ± 1.6
288.15 K, x1 = 0.9008	1056.7 ± 1.5	1061.01 ± 1.6	1065.22 ± 1.6	1069.4 ± 1.6	1073.24 ± 1.6	1076.92 ± 1.6	1080.55 ± 1.6	1083.98 ± 1.6	1087.34 ± 1.6
288.15 K, x1 = 0.9255	1061.81 ± 1.6	1066.14 ± 1.6	1070.35 ± 1.6	1074.54 ± 1.6	1078.38 ± 1.6	1082.06 ± 1.6	1085.69 ± 1.6	1089.13 ± 1.6	1092.49 ± 1.6
288.15 K, x1 = 0.9477	1066.36 ± 1.6	1070.68 ± 1.6	1074.89 ± 1.6	1079.08 ± 1.6	1082.92 ± 1.6	1086.6 ± 1.6	1090.23 ± 1.6	1093.68 ± 1.6	1097.04 ± 1.6
288.15 K, x1 = 0.9735	1071.55 ± 1.6	1075.89 ± 1.6	1080.08 ± 1.6	1084.28 ± 1.6	1088.11 ± 1.6	1091.79 ± 1.6	1095.43 ± 1.6	1098.88 ± 1.6	1102.23 ± 1.6
288.15 K, x1 = 1	1076.83 ± 0.57	1081.15 ± 0.57	1085.32 ± 0.58	1089.52 ± 0.6	1093.35 ± 0.61	1096.99 ± 0.62	1100.63 ± 0.63	1104.08 ± 0.65	1107.4 ± 0.67
293.15 K, x1 = 0.0252	799.52 ± 1.4	803.53 ± 1.4	807.63 ± 1.4	–	–	–	–	–	–
293.15 K, x1 = 0.0506	808.93 ± 1.4	813.04 ± 1.4	817.2 ± 1.4	–	–	–	–	–	–
293.15 K, x1 = 0.0757	818.21 ± 1.4	822.32 ± 1.4	826.48 ± 1.4	–	–	–	–	–	–
293.15 K, x1 = 0.1003	827.05 ± 1.4	831.21 ± 1.4	835.37 ± 1.4	–	–	–	–	–	–
293.15 K, x1 = 0.1508	844.9 ± 1.4	849.11 ± 1.4	853.32 ± 1.4	–	–	–	–	–	–
293.15 K, x1 = 0.2	861.69 ± 1.4	865.96 ± 1.4	870.22 ± 1.4	–	–	–	–	–	–
293.15 K, x1 = 0.2547	879.83 ± 1.4	884.11 ± 1.4	–	–	–	–	–	–	–
293.15 K, x1 = 0.3002	894.46 ± 1.4	898.79 ± 1.4	–	–	–	–	–	–	–
293.15 K, x1 = 0.3498	909.95 ± 1.4	914.32 ± 1.4	–	–	–	–	–	–	–
293.15 K, x1 = 0.4	925.11 ± 1.4	929.49 ± 1.4	–	–	–	–	–	–	–
293.15 K, x1 = 0.449	939.35 ± 1.4	943.78 ± 1.5	–	–	–	–	–	–	–
293.15 K, x1 = 0.4996	953.6 ± 1.5	958.04 ± 1.5	–	–	–	–	–	–	–
293.15 K, x1 = 0.5507	967.53 ± 1.5	971.96 ± 1.5	–	–	–	–	–	–	–
293.15 K, x1 = 0.6005	980.58 ± 1.5	985.07 ± 1.5	–	–	–	–	–	–	–
293.15 K, x1 = 0.6455	991.96 ± 1.5	996.45 ± 1.5	–	–	–	–	–	–	–
293.15 K, x1 = 0.6931	1003.6 ± 1.5	1008.14 ± 1.5	–	–	–	–	–	–	–
293.15 K, x1 = 0.7502	1017.03 ± 1.5	1021.58 ± 1.5	–	–	–	–	–	–	–
293.15 K, x1 = 0.8009	1028.54 ± 1.5	1033.09 ± 1.5	–	–	–	–	–	–	–
293.15 K, x1 = 0.8505	1039.42 ± 1.5	1043.97 ± 1.5	–	–	–	–	–	–	–
293.15 K, x1 = 0.9008	1050.05 ± 1.5	1054.61 ± 1.5	–	–	–	–	–	–	–
293.15 K, x1 = 0.9255	1055.15 ± 1.5	1059.71 ± 1.6	–	–	–	–	–	–	–
293.15 K, x1 = 0.9477	1059.65 ± 1.6	1064.21 ± 1.6	–	–	–	–	–	–	–
293.15 K, x1 = 0.9735	1064.83 ± 1.6	1069.39 ± 1.6	–	–	–	–	–	–	–
293.15 K, x1 = 1	1070.06 ± 0.56	1074.62 ± 0.57	–	–	–	–	–	–	–
